In PubChem BioAssay AID1033 (Sanford-Burnham Center for Chemical Genomics, 2008):
The source made the active and inactive calls. No rule for the calls is given here.

Each compound was assayed against Chaperone protein DnaK (Escherichia coli (strain K12)) (UniProt P0A6Y8) (assay: E. coli DnaK SBD ligand binding – biophysical, NMR, chaperone (AID 1033)). Details: Purified DnaK SBD.
Chain of Chaperone protein DnaK (Escherichia coli (strain K12)) (P0A6Y8 whole entry, looked up): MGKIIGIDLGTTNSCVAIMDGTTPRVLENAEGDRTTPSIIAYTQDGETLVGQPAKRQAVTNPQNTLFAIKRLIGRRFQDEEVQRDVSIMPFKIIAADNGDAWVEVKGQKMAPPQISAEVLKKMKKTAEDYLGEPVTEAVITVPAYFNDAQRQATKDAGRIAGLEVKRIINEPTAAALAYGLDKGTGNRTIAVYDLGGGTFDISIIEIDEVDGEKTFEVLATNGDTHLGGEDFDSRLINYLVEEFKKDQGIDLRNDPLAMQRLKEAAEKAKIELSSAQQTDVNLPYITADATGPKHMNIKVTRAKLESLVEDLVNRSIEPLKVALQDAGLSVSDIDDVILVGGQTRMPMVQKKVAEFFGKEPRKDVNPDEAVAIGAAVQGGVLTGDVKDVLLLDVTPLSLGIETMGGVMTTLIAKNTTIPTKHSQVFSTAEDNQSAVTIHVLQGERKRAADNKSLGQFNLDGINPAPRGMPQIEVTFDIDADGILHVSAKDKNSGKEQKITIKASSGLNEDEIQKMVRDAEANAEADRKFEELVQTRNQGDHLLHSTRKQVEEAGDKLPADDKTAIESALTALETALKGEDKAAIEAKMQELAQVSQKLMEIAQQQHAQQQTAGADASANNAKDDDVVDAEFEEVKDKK
Cc1cc(=O)cc(C)n1NC(N)=S was tested, and the Kd was > 4 mM (inactive). In the case of Cc1n[nH]c(C)c1CC(=O)O, the Kd is reported as > 4 mM (inactive). Cn1cnc2c(=O)[nH]cc([N+](=O)[O-])c21 was tested, and the Kd was > 4 mM (inactive). For c1cc(CNc2ccc3c(c2)OCCO3)ccn1, the Kd was > 4 mM (inactive). In the case of COc1ccc2nc(SCC(N)=O)[nH]c2c1, the Kd is reported as > 4 mM (inactive). In the case of O=C1C2C3C=CC(C3)C2C(=O)N1c1ccccn1 (stereo not given), the Kd is reported as > 4 mM (inactive). For NC(=O)C12CC3CC(C1)C(=O)C(C3)C2, the Kd was > 4 mM (inactive). For COc1ccccc1NC(=O)c1cc[n+]([O-])cc1, the Kd was > 4 mM (inactive). For COc1cc(OC)c2c(=O)c(-c3ccccc3)coc2c1, the Kd was > 4 mM (inactive). For O=C1NC(=O)C2C3C=CC(O3)C12 (stereo not given), the Kd was > 4 mM (inactive). For Oc1ccccc1-c1nnco1, the Kd was > 4 mM (inactive). C(=N\n1cnnc1)/c1cccs1 was tested, and the Kd was > 4 mM (inactive). In the case of O=C(NCc1ccccc1)c1ccc[n+]([O-])c1, the Kd is reported as > 4 mM (inactive). C=CCNC(=O)c1nn2cccnc2c1Cl was tested, and the Kd was > 4 mM (inactive). With O=c1[nH]nc(Cc2ccncc2)c2ccccc12 the Kd was > 4 mM (inactive). CC(=O)Nc1cc(O)cc(O)c1 was tested, and the Kd was > 4 mM (inactive). In the case of C#CCCCCCCCCCCCC(=O)CC(O)COC(C)=O (stereo not given), the Kd is reported as > 4 mM (inactive). O=C1NC(=O)/C(=C/c2ccc(O)cc2)N1 was tested, and the Kd was > 4 mM (inactive). In the case of CC(O)c1ccc(C(C)O)cc1 (stereo not given), the Kd is reported as > 4 mM (inactive). For Cc1nc(SCC(=O)c2c[nH]c3ccccc23)n[nH]1, the Kd was > 4 mM (inactive). Cc1noc(-c2ccccc2)c1CO was tested, and the Kd was > 4 mM (inactive). With C[C@@H]1O[C@@H](O[C@H]2C[C@@H](O)[C@]3(CO)C4C(CC[C@]3(O)C2)[C@@]2(O)CC[C@H](C3=CC(=O)OC3)[C@@]2(C)C[C@H]4O)[C@H](O)[C@H](O)[C@H]1O (stereo not given in full) the Kd was > 4 mM (inactive). With CC(NC(=O)c1cccnc1)c1ccc2c(c1)OCO2 (stereo not given) the Kd was > 4 mM (inactive). Nc1ccc2[nH]ccc2c1 was tested, and the Kd was > 4 mM (inactive). With O=c1[nH]c(O)c(C=NC2CC2)c(=O)[nH]1 the Kd was > 4 mM (inactive). In the case of Cc1ccc(CNc2ccc(O)cc2)cc1, the Kd is reported as > 4 mM (inactive). With O=c1[nH]c2sc3c(c2c2ncnn12)CCCC3 the Kd was > 4 mM (inactive). O=C(CNC(=O)c1ccc(F)cc1)NC1=NCCS1 was tested, and the Kd was > 4 mM (inactive). Cc1ccc(CNC(=O)c2ccc([N+](=O)[O-])o2)cc1 showed a Kd of less than 0.2 mM. With Cc1nc(-c2ccccc2)ncc1CO the Kd was > 4 mM (inactive). For O/N=C1/CCCc2nonc21, the Kd was > 4 mM (inactive). In the case of O=S(=O)(O)c1nc2ccccc2[nH]1, the Kd is reported as > 4 mM (inactive). With CN1CCC(N2CCN(C)CC2)CC1 the Kd was > 4 mM (inactive). For CC(C)=CCc1c(O)cc2oc(C)cc(=O)c2c1O, the Kd was > 4 mM (inactive). O=C(O)c1ccc2nccnc2c1 was tested, and the Kd was > 4 mM (inactive). In the case of Cc1ccc(C(=O)Nn2cnnc2)c(Cl)c1, the Kd is reported as > 4 mM (inactive). For [O-][n+]1c2ccccc2[n+]([O-])c2cc(O)ccc21, the Kd was > 4 mM (inactive). In the case of Nc1ncccc1OCc1ccccc1, the Kd is reported as > 4 mM (inactive). In the case of CC1(C)N=C2C(=[N+]1[O-])CCC/C2=N\O, the Kd is reported as > 4 mM (inactive). CCOC(=O)C1=C(O)CCN(C)C1 was tested, and the Kd was > 4 mM (inactive). In the case of Cn1cnnc1SCC(=O)Nc1ccccc1, the Kd is reported as > 4 mM (inactive). For O=C(Nc1ccon1)c1sc2cc(F)ccc2c1Cl, the Kd was > 4 mM (inactive). For CC(=O)c1cnc(Nc2nc(C)c3ccccc3n2)nc1C, the Kd was > 4 mM (inactive). In the case of CSc1ccc(C(=S)N2CCN(C)CC2)cc1, the Kd is reported as > 4 mM (inactive). COC(=O)C1=C(C)N(Cc2ccco2)C(=O)C1 was tested, and the Kd was > 4 mM (inactive). For CSc1ccn(CCC(=O)O)c(=O)n1, the Kd was > 4 mM (inactive). In the case of O=C(Nn1cnnc1)c1ccccc1Cl, the Kd is reported as > 4 mM (inactive). For Cc1nn(C)c(N2CCOCC2)c1N, the Kd was > 4 mM (inactive). With COc1ccc2nc(NC(=O)c3cnccn3)sc2c1 the Kd was > 4 mM (inactive). In the case of O=[n+]1cc(C2=CC=CCC2)n([O-])c2c1CCCCC2, the Kd is reported as > 4 mM (inactive). For O=C(c1cc(Cl)cc(Cl)c1)N1CCOCC1, the Kd was > 4 mM (inactive). With C=C1C([C@]2(C)C(CC(=O)OC)[C@@](C)(COC(C)=O)OC(=O)C[C@@H]2OC(C)=O)[C@@H](OC=O)[C@H](OC(=O)C(O)C(C)CC)[C@@]2(C)[C@H](c3ccoc3)CC(=O)C12O (stereo not given in full) the Kd was > 4 mM (inactive). With CC1=CC2C(CC1=O)C(C)=CCC2C(C)C (stereo not given) the Kd was > 4 mM (inactive). In the case of Cc1nn2c(nc1=O)SCC(c1ccccc1)=N2, the Kd is reported as > 4 mM (inactive). For COc1cc(OC)c(-c2c(OC)cc(OC)cc2OC)c(OC)c1, the Kd was > 4 mM (inactive). With Nc1cccc(-c2cnco2)c1 the Kd was > 4 mM (inactive). COCc1c(CN)cnc(C)c1N was tested, and the Kd was > 4 mM (inactive). In the case of O=C(O)c1ccc2c(c1)CCO2, the Kd is reported as > 4 mM (inactive). In the case of S=C(c1ccc(N2CCOCC2)cc1)N1CCOCC1, the Kd is reported as > 4 mM (inactive). For Cc1ccc(-c2nc(-c3cccnc3)no2)c(C)c1, the Kd was > 4 mM (inactive). With NCc1ccc2occc2c1 the Kd was > 4 mM (inactive). O=C(CC1SC(=O)NC1=O)Nc1nccs1 (stereo not given) was tested, and the Kd was > 4 mM (inactive). With Nc1ncnc2nc(SCCN3CCCCC3)[nH]c12 the Kd was > 4 mM (inactive). With CNc1nc(C)nc(-n2nc(C)cc2C)n1 the Kd was > 4 mM (inactive). In the case of Cc1nc2ccccc2c(=O)[nH]1, the Kd is reported as > 4 mM (inactive). For CCCCCC1C(=O)CCC1CC(=O)OC (stereo not given), the Kd was > 4 mM (inactive). NC(=O)C1CCN(c2ncnc(N)c2[N+](=O)[O-])CC1 was tested, and the Kd was > 4 mM (inactive). In the case of O=C(c1ccc(F)cc1)N1CCN(c2ncccn2)CC1, the Kd is reported as > 4 mM (inactive). In the case of CCOC(=O)c1c(SC)nc(=O)[nH]c1C, the Kd is reported as > 4 mM (inactive). With CCCc1cc(=O)[nH]c2nnc(SCC(C)=O)n12 the Kd was > 4 mM (inactive). With Fc1ccc2onc(C3CCNCC3)c2c1 the Kd was > 4 mM (inactive). With c1ccc(CCN2CCN(CCc3ccccn3)CC2)nc1 the Kd was > 4 mM (inactive). With O=C(O)c1ccnn1-c1ccccc1 the Kd was > 4 mM (inactive). In the case of NCc1ccc(N2CCOCC2)cc1, the Kd is reported as > 4 mM (inactive). NC(=O)CCn1cnc2ccccc21 was tested, and the Kd was > 4 mM (inactive). In the case of Nc1ccc(-c2cn3c(n2)SCC3)cc1, the Kd is reported as > 4 mM (inactive). With Nc1nc(-c2ccc(O)cc2)cs1 the Kd was > 4 mM (inactive). COc1cc2c(cc1-c1coc3c4c(c(OC)cc3c1=O)OC(C)(C)C=C4)OCO2 was tested, and the Kd was > 4 mM (inactive). In the case of CC(=O)Oc1ccc(-c2cc(=O)c3c(OC(C)=O)cc(OC(C)=O)cc3o2)cc1, the Kd is reported as > 4 mM (inactive). For CC1CCN(C(=O)c2cc3ccccc3o2)CC1, the Kd was > 4 mM (inactive). Cn1ncc(CO)c1-c1ccccc1 was tested, and the Kd was > 4 mM (inactive). In the case of Cc1noc(C)c1C(=O)N1CCc2ccccc2C1, the Kd is reported as > 4 mM (inactive). With O=C1C2CCCCC2C(=O)N1c1nccs1 (stereo not given) the Kd was > 4 mM (inactive). CC(=O)C1CC[C@H]2C3CC[C@H]4C[C@H](O)CC[C@]4(C)C3CC[C@]12C (stereo not given in full) was tested, and the Kd was > 4 mM (inactive). In the case of CC(C)NS(=O)(=O)c1ccc(N)cc1, the Kd is reported as > 4 mM (inactive). In the case of Cc1cc(C(=O)c2c(C)nn(C)c2Cl)n(C)n1, the Kd is reported as > 4 mM (inactive). In the case of Cc1occc1C(=O)NCc1ccccn1, the Kd is reported as > 4 mM (inactive). Cc1cc(NC(=O)CSc2ccnc(=O)[nH]2)no1 was tested, and the Kd was > 4 mM (inactive). With COC(=O)C[C@H]1C2(C)CC34OC5(C)O[C@@]6([C@H](OC)C(OC(=O)C(C)C)[C@]7(C)C(/C(=C(/OC)C(C)C)C(=O)O[C@H]7c7ccoc7)[C@@]6(O5)[C@H](OC)[C@@]3(OC)C2OC(C)=O)[C@]14C (stereo not given in full) the Kd was > 4 mM (inactive). In the case of Oc1cc(O)c2c(c1)O[C@H](c1ccc(O)c(O)c1)[C@H](O)C2, the Kd is reported as > 4 mM (inactive). In the case of OCc1ccc(CN2CCOCC2)cc1, the Kd is reported as > 4 mM (inactive). With c1ccc(CCc2nc(-c3cccnc3)no2)cc1 the Kd was > 4 mM (inactive). O=C(COc1ccccc1Cl)N1CCCC1 was tested, and the Kd was > 4 mM (inactive). In the case of O=C(Cc1ccccc1)Nc1c[nH]c(=O)[nH]c1=O, the Kd is reported as > 4 mM (inactive). In the case of Cc1ccc2nc(SCCC#N)nc(C)c2c1, the Kd is reported as > 4 mM (inactive). COC(=O)C[C@@H]1C2(C)C(=O)[C@@H](CC3C2CC[C@]2(C)C3CC(=O)O[C@H]2c2ccoc2)[C@H](OC(C)=O)C1(C)C (stereo not given in full) was tested, and the Kd was > 4 mM (inactive). COc1ccc(/C=C2/SC(N)=NC2=O)c(OC)c1 was tested, and the Kd was > 4 mM (inactive). O=c1cc(-c2ccccc2)oc2cc(O)c(O)c(O)c12 was tested, and the Kd was > 4 mM (inactive). For O=C(CSC1=NCCS1)N1CCc2ccccc21, the Kd was > 4 mM (inactive). In the case of CC(=O)C1=C(O)C(=O)NC1c1ccccc1 (stereo not given), the Kd is reported as > 4 mM (inactive). For Cn1cnc2c1c(=O)[nH]c(=O)n2C, the Kd was > 4 mM (inactive). With CCn1cnc2scc(-c3ccccc3)c2c1=O the Kd was > 4 mM (inactive). With CC1(C)NCCN2C(=O)CSC21 (stereo not given) the Kd was > 4 mM (inactive). With COc1cc2c(cc1OC)C1=C(C#N)CCC(=O)N1CC2 the Kd was > 4 mM (inactive). In the case of ON=c1ccc2nc3ccccc3nc2cc1, the Kd is reported as > 4 mM (inactive). In the case of Cc1ccc(-n2cnnn2)c2cccnc12, the Kd is reported as > 4 mM (inactive). O=C(Nc1cccnc1)N1CCOCC1 was tested, and the Kd was > 4 mM (inactive). For CC1(O)CC2C(CC1O)C2(C)C (stereo not given), the Kd was > 4 mM (inactive). For CC(C)Oc1ccc(C2CC(=O)NNC2=O)cc1 (stereo not given), the Kd was > 4 mM (inactive). In the case of Cc1nnc(SCC(=O)N2CCc3ccccc32)s1, the Kd is reported as > 4 mM (inactive). In the case of NCc1ccc2c(c1)OCO2, the Kd is reported as > 4 mM (inactive). With COc1ccc2c(c1)OC/C(=C\c1ccc(OC)c(O)c1)C2=O the Kd was > 4 mM (inactive). In the case of Cc1ccc2cc(N)ccc2n1, the Kd is reported as > 4 mM (inactive). With O=C(NCc1ccco1)c1ccc(=O)[nH]c1 the Kd was > 4 mM (inactive). CCC1C(=O)OCC1Cc1cncn1C (stereo not given) was tested, and the Kd was > 4 mM (inactive).
